{"source": "patent US8580288B2", "about": "“Agricultural or horticultural fungicide composition and its use for controlling plant pathogens” (Ishihara Sangyo Kaisha, Ltd, priority 2009, dated 2013)", "key": {"Pythium aristosporum": {"test_system": "Pythium aristosporum", "assay": "Inhibition test of mycelial growth against Pythium aristosporum", "type": "cell-based", "details": "48 h, PSA, 2 days, 20° C., read-out: Inhibition Rate of Mycelial Growth against Pythium aristosporum", "experimental": "(§1) Pythium aristosporum was precultured. And the obtained hyphae (4 mm in diameter) was transplanted on potato sucrose agar medium (PSA) including an agent at a predetermined concentration, and then cultured for two days at room temperature of 20° C., followed by measuring a diameter of the mycelial colony to obtain an inhibition rate of mycelial growth. In addition, a theoretical value of the inhibition rate was calculated using Colby's formula and listed in parentheses of Table 1."}, "Pythium aphanidermatum": {"test_system": "Pythium aphanidermatum", "assay": "Inhibition test of mycelial growth against Pythium aphanidermatum", "type": "cell-based", "details": "read-out: Inhibition Rate of Mycelial Growth against Pythium aphanidermatum", "experimental": "[Worded in the source for another organism; this organism is reported under the same test.] as §1, with “growth. The inhibition rate of mycelial growth was obtained by measuring a diameter of mycelial colony in the same manner as Test Example 1.” for “growth.”, “2.” for “1.”"}, "[1]": {"details": "Cyazofamid 0.1 ppm alone (Folpet 0 ppm)"}, "[2]": {"details": "Cyazofamid 1 ppm alone (Folpet 0 ppm)"}, "[3]": {"details": "Cyazofamid 10 ppm alone (Folpet 0 ppm)"}, "[4]": {"details": "Cyazofamid 100 ppm alone (Folpet 0 ppm)"}, "[5]": {"details": "Folpet 0.1 ppm alone (Cyazofamid 0 ppm)"}, "[6]": {"details": "Folpet 1 ppm alone (Cyazofamid 0 ppm)"}, "[7]": {"details": "Folpet 10 ppm alone (Cyazofamid 0 ppm)"}, "[8]": {"details": "Folpet 100 ppm alone (Cyazofamid 0 ppm)"}}, "note": "Read-outs that look alike come from different tables or passages of the source.", "data": [{"smiles": "Cc1ccc(-c2c(Cl)nc(C#N)n2S(=O)(=O)N(C)C)cc1", "note": "[Cyazofamid, 4-chloro-2-cyano-1-dimethylsulfamoyl-5-(4-methylphenyl)imidazole]", "values": [{"measurement": "inhibition at 0.1 ppm", "setting": "Pythium aristosporum; [1]", "result": 17, "unit": "%"}, {"measurement": "inhibition at 1 ppm", "setting": "Pythium aristosporum; [2]", "result": 38, "unit": "%"}, {"measurement": "inhibition at 10 ppm", "setting": "Pythium aristosporum; [3]", "result": 38, "unit": "%"}, {"measurement": "inhibition at 100 ppm", "setting": "Pythium aristosporum; [4]", "result": 41, "unit": "%"}, {"measurement": "inhibition at 0.1 ppm", "setting": "Pythium aphanidermatum; [1]", "result": 54, "unit": "%"}, {"measurement": "inhibition at 1 ppm", "setting": "Pythium aphanidermatum; [2]", "result": 52, "unit": "%"}, {"measurement": "inhibition at 10 ppm", "setting": "Pythium aphanidermatum; [3]", "result": 60, "unit": "%"}, {"measurement": "inhibition at 100 ppm", "setting": "Pythium aphanidermatum; [4]", "result": 80, "unit": "%"}]}, {"smiles": "O=C1c2ccccc2C(=O)N1SC(Cl)(Cl)Cl", "note": "[Folpet, N-(trichloromethanesulphenyl)phthalimide]", "values": [{"measurement": "inhibition at 0.1 ppm", "setting": "Pythium aristosporum; [5]", "result": 3, "unit": "%"}, {"measurement": "inhibition at 1 ppm", "setting": "Pythium aristosporum; [6]", "result": 3, "unit": "%"}, {"measurement": "inhibition at 10 ppm", "setting": "Pythium aristosporum; [7]", "result": 45, "unit": "%"}, {"measurement": "inhibition at 100 ppm", "setting": "Pythium aristosporum; [8]", "result": 90, "unit": "%"}, {"measurement": "inhibition at 0.1 ppm", "setting": "Pythium aphanidermatum; [5]", "result": 2, "unit": "%"}, {"measurement": "inhibition at 1 ppm", "setting": "Pythium aphanidermatum; [6]", "result": 0, "unit": "%"}, {"measurement": "inhibition at 10 ppm", "setting": "Pythium aphanidermatum; [7]", "result": 62, "unit": "%"}, {"measurement": "inhibition at 100 ppm", "setting": "Pythium aphanidermatum; [8]", "result": 80, "unit": "%"}]}]}
